Assay results taken from ChEMBL document CHEMBL3525952, “A Baeyer-Villiger oxidation specifically catalyzed by human flavin-containing monooxygenase 5” (Drug Metab Dispos, 2011).

Columns and labels:
[1] = biological target: T1, Flavin-containing monooxygenase 3 (Homo sapiens, UniProt P31513); test: Drug metabolism assessed as human recombinant FMO3-mediated ER-879123 formation in presence of dog liver cytosolic fractions and NAD+ at 50 uM after 60 mins by LC-MS/MS method; format: ADME, tissue-based; details: recombinant enzyme, 1 h
T1 sequence (P31513 whole entry): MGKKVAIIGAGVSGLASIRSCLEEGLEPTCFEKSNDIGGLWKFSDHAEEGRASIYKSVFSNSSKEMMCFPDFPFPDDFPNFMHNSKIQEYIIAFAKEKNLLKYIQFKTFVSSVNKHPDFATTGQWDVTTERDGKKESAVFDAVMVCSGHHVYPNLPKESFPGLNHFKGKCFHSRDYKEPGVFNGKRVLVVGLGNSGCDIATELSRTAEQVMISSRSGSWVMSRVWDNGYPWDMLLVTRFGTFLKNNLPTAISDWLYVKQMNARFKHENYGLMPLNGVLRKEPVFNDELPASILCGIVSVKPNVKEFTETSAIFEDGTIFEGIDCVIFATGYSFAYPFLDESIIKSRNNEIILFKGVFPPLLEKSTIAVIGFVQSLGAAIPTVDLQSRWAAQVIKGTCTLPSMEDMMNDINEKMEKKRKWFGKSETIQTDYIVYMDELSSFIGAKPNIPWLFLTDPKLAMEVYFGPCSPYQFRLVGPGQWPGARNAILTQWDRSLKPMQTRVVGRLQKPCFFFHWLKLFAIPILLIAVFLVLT

[2] = Drug metabolism in human liver S9 fraction assessed as ER-879123 formation at 50 uM after 60 mins in presence of NAD+ and FMO1 and FMO3 substrate/inhibitor methimazole by LC-MS/MS method; format: ADME, subcellular; details: s9, 1 h
[3] = Drug metabolism in dog liver S9 fraction assessed as ER-879123 formation at 50 uM after 60 mins in presence of NAD+ and FMO1 and FMO3 substrate/inhibitor methimazole by LC-MS/MS method; format: ADME, subcellular, Canis lupus familiaris; details: s9, 1 h
[4] = Drug metabolism in human liver S9 fraction assessed as ER-879123 formation at 50 uM after 60 mins in presence of NAD+ and carboxylesterase inhibitor BNPP by LC-MS/MS method; format: ADME, subcellular; details: 1 h
[5] = Drug metabolism in rat hepatocytes assessed as ER-879123 formation at 50 uM after 120 mins in presence of NADPH by LC-MS/MS method; format: ADME, cell-based, Hepatocyte; details: 2 h
[6] = Drug metabolism in dog hepatocytes assessed as ER-879123 formation at 50 uM after 120 mins in presence of NADPH by LC-MS/MS method; format: ADME, cell-based, Canis lupus familiaris, Hepatocyte; details: 2 h
[7] = biological target: T2, Flavin-containing monooxygenase 1 (Homo sapiens, UniProt Q01740); test: Drug metabolism assessed as human recombinant FMO1-mediated ER-879123 formation in presence of dog liver cytosolic fractions and NAD+ at 50 uM after 60 mins by LC-MS/MS method; format: ADME, tissue-based; details: recombinant enzyme, 1 h
T2 sequence (Q01740 whole entry): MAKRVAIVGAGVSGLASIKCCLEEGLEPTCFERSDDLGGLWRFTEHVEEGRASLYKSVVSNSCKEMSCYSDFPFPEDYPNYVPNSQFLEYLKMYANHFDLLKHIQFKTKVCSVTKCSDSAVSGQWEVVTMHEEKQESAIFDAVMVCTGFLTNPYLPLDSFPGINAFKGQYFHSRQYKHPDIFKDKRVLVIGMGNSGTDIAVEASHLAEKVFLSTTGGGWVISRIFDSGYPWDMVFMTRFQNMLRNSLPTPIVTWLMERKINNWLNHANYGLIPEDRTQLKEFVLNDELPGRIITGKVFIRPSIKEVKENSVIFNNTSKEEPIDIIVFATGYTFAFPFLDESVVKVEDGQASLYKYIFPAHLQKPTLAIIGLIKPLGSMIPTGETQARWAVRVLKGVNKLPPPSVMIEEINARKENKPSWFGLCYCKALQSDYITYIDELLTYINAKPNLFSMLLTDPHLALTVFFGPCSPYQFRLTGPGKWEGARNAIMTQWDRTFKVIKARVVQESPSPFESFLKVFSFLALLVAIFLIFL

[8] = tested on: Liver microsome; test: Drug metabolism in human liver microsomes assessed as ER-879123 formation at 50 uM after 60 mins in presence of NADPH by LC-MS/MS method; format: ADME; details: 1 h
[9] = Drug metabolism in human liver S9 fraction assessed as ER-879123 formation at 50 uM after 60 mins in presence of NAD+ by LC-MS/MS method; format: ADME, subcellular; details: s9, 1 h
[10] = Drug metabolism in dog liver S9 fraction assessed as ER-879123 formation at 50 uM after 60 mins in presence of NADP+ by LC-MS/MS method; format: ADME, subcellular, Canis lupus familiaris; details: s9, 1 h
[11] = Drug metabolism in 50 degC treated human liver S9 fraction assessed as ER-879123 formation at 50 uM after 60 mins in absence of NAD+ by LC-MS/MS method; format: ADME, tissue-based; details: s9, 1 h
[12] = Drug metabolism in human liver S9 fraction assessed as ER-879123 formation at 50 uM after 60 mins in presence of NADP+ by LC-MS/MS method; format: ADME, subcellular; details: s9, 1 h
[13] = tested on: Liver microsome; test: Drug metabolism in rat liver microsomes assessed as ER-879123 formation at 50 uM after 60 mins in presence of NADPH by LC-MS/MS method; format: ADME; details: 1 h
[14] = biological target: T3, Flavin-containing monooxygenase 5 (Homo sapiens, UniProt P49326); test: Drug metabolism assessed as human recombinant FMO5-mediated ER-879123 formation in absence of dog liver cytosolic fractions at 50 uM after 60 mins by LC-MS/MS method; format: ADME, tissue-based; details: recombinant enzyme, 1 h
T3 sequence (P49326 whole entry): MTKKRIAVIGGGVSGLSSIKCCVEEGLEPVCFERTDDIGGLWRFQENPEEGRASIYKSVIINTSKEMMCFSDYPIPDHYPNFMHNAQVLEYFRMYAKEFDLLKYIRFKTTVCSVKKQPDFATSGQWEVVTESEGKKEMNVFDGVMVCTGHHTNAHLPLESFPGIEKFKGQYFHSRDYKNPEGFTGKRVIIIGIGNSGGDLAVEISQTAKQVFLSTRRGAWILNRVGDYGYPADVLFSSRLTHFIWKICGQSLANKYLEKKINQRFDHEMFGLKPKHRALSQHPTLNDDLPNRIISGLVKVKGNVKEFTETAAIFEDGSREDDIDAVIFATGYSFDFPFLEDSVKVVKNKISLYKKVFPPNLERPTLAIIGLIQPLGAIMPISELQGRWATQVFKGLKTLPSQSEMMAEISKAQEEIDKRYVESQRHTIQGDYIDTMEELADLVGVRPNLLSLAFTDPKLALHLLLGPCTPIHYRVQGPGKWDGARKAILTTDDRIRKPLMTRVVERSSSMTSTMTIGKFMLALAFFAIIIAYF

[15] = biological target: T3, Flavin-containing monooxygenase 5; test: Drug metabolism assessed as human recombinant FMO5-mediated ER-879123 formation in presence of rat liver cytosolic fractions at 50 uM after 60 mins by LC-MS/MS method; format: ADME, tissue-based; details: recombinant enzyme, 1 h
[16] = Drug metabolism in human hepatocytes assessed as ER-879123 formation at 50 uM after 120 mins in presence of NADPH by LC-MS/MS method; format: ADME, cell-based, Hepatocyte; details: 2 h
[17] = biological target: T3, Flavin-containing monooxygenase 5; test: Drug metabolism assessed as human recombinant FMO5-mediated ER-879123 formation in absence of human liver cytosolic fractions at 50 uM after 60 mins by LC-MS/MS method; format: ADME, tissue-based; details: recombinant enzyme, 1 h
[18] = Drug metabolism in 50 degC treated dog liver S9 fraction assessed as ER-879123 formation at 50 uM after 60 mins in absence of NAD+ by LC-MS/MS method; format: ADME, tissue-based, Canis lupus familiaris; details: s9, 1 h
[19] = Drug metabolism in human liver S9 fraction assessed as ER-879123 formation at 50 uM after 60 mins in presence of NAD+ and alcohol dehydrogenase inhibitor 4-methylpyrazole by LC-MS/MS method; format: ADME, subcellular; details: s9, 1 h
[20] = Drug metabolism in dog liver S9 fraction assessed as ER-879123 formation at 50 uM after 60 mins in presence of NAD+ by LC-MS/MS method; format: ADME, subcellular, Canis lupus familiaris; details: s9, 1 h
[21] = biological target: T3, Flavin-containing monooxygenase 5; test: Drug metabolism assessed as human recombinant FMO5-mediated ER-879123 formation in absence of rat liver cytosolic fractions at 50 uM after 60 mins by LC-MS/MS method; format: ADME, tissue-based; details: recombinant enzyme, 1 h
[22] = Drug metabolism in dog liver S9 fraction assessed as ER-879123 formation at 50 uM after 60 mins in presence of NAD+ and carboxylesterase inhibitor BNPP by LC-MS/MS method; format: ADME, subcellular, Canis lupus familiaris; details: 1 h
[23] = Drug metabolism in dog liver S9 fraction assessed as ER-879123 formation at 50 uM after 60 mins in presence of NAD+ and alcohol dehydrogenase inhibitor 4-methylpyrazole by LC-MS/MS method; format: ADME, subcellular, Canis lupus familiaris; details: s9, 1 h
[24] = tested on: Liver microsome; test: Drug metabolism in dog liver microsomes assessed as ER-879123 formation at 50 uM after 60 mins in presence of NADPH by LC-MS/MS method; format: ADME, Canis lupus familiaris; details: 1 h
[25] = biological target: T3, Flavin-containing monooxygenase 5; test: Drug metabolism assessed as human recombinant FMO5-mediated ER-879123 formation in presence of dog liver cytosolic fractions at 50 uM after 60 mins by LC-MS/MS method; format: ADME, tissue-based; details: recombinant enzyme, 1 h
[26] = biological target: T3, Flavin-containing monooxygenase 5; test: Drug metabolism assessed as human recombinant FMO5-mediated ER-879123 formation in presence of human liver cytosolic fractions at 50 uM after 60 mins by LC-MS/MS method; format: ADME, tissue-based; details: recombinant enzyme, 1 h

O=c1[nH]nc2c3c(cccc13)Oc1ccc(CN3CCC(O)CC3)cc1-2 [E-7016]
Drug metabolism [1]: metabolite_not_detected
Drug metabolism [2]: metabolite_detected
Drug metabolism [3]: metabolite_detected
Drug metabolism [4]: metabolite_not_detected
Drug metabolism [5]: metabolite_detected
Drug metabolism [6]: metabolite_detected
Drug metabolism [7]: metabolite_not_detected
Drug metabolism [8]: metabolite_not_detected
Drug metabolism [9]: metabolite_detected
Drug metabolism [10]: metabolite_detected
Drug metabolism [11]: metabolite_not_detected
Drug metabolism [12]: metabolite_detected
Drug metabolism [13]: metabolite_not_detected
Drug metabolism [14]: metabolite_not_detected
Drug metabolism [15]: metabolite_detected
Drug metabolism [16]: metabolite_detected
Drug metabolism [17]: metabolite_not_detected
Drug metabolism [18]: metabolite_not_detected
Drug metabolism [19]: metabolite_not_detected
Drug metabolism [20]: metabolite_detected
Drug metabolism [21]: metabolite_not_detected
Drug metabolism [22]: metabolite_not_detected
Drug metabolism [23]: metabolite_not_detected
Drug metabolism [24]: metabolite_not_detected
Drug metabolism [25]: metabolite_detected
Drug metabolism [26]: metabolite_detected
